Laboratory results as given in patent US20040058983A1, “Plan-derived and synthetic phenolic compounds and plant extracts, effective in the treatment and prevention of chlamydial infections” (priority 2000, published 2004).
Read-outs that look alike come from different tables or passages of the source.

Columns and labels:
Ca^2+ intake in the cell = assay: Effect of the compounds on the calcium influx (Ca2+ intake) to the cell; assay type: cell-based; settings: compound 20 μg/ml; − = decrease, + = increase
Source text: (§1) In the following Table I some of the preferred plant-derived phenolic compounds according to the present invention, the effect of the compounds on the calcium influx to the cell, the antioxidant effect as well as the chemical structure of the compounds are presented.

[1] = Antioxidant effect, IC50 against DPPH; assay type: biochemical; settings: read-out: IC50 [moles L^−1] against DPPH′
Source text: as §1

C. pneumoniae [2] = assay: Direct anti-chlamydial effect of compounds and mixtures on C. pneumoniae (Example 5); assay type: cell-based; settings: 50 μM; for inhibition at 50 µM: Chlamydia pneumoniae, read-out: Inhibition %
Procedure: Direct Anti-Chlamydial Effect of Plant-Derived Phenolic Compounds, Certain Synthetic Compounds and Mixtures on C. pneumoniae
The concentration used was 50 μM.
(§2) The cultivated HL cells are infected with C. pneumoniae EB's. The EB's which have invaded the cell are changed into the metabolically active reticulate body (RB) which are dividing by binary fission in the endosome vacuole or inclusion.
(§3) After a certain time (about 72 hr) the C. pneumoniae RB's are condensing back into EB's, after which the inclusions are broken, the host cells are broken and the EB's are liberated. In this method the intention is to verify the inclusions before the breaking up of the host cells.
(§4) On the day preceding the infection the host cells are inoculated on a 24-well plate: the cells are harvested by trypsinisation, they are suspended in ca. 5 ml of the nutrition liquid and counted in a Burker's chamber. Each well are seeded using a concentration of 250000-400000 cells/well for cultivation. Before the addition of the cells to the well is if necessary round cover glass (diameter 13 mm) put for staining. Nutrition liquid is added so that the volume is 1 ml/well. On the following day the cells are infected with the desired bacterium.
(§5) Solution to be used in the infection and containing chlamydiae particles is mixed throughout. The old nutrition liquid is aspirated away. By the infection the inoculum which has been stored at −70° C. is diluted to an IFU concentration of ca. 10^3 so that the volume of the solution is at least 200 μl/well on a 24-well plate. The cells are infected by centrifuging at 1600 rpm (550×g)/1 hr. The nutrition medium is aspirated away and changed to a maintenance medium containing cyclohexamide and also containing the studied compound (DMSO concentration 0.2%), 1 ml/well. The cells are incubated in a 5% CO2 atmosphere at +35° C. The cells infected with C. pneumoniae are incubated for 3 days. After 2-3 days the maintenance medium is removed and the cells washed with 1×1 ml of PBS. To the wells 200 μl of SPG are added for further infection, harvested with a pipette tip and transferred into tubes. This is used for infecting new cells in the same way as above to test the inhibition of infectivity (chlamydiasidic effect).
(§6) The nutrition medium, which is above the cover glass left for staining, is aspirated away. The infected cells are fixed on the cover glass with methanol for 10 min. The cover glass is removed from the well and -transferred onto a suitable fluorescein-conjugated monoclonal antibody on Parafilm in a moist chamber with the cell-containing side down. The cover glass is incubated for 30 min at +37° C. and washed twice with PBS and once with water. Finally it is dried. The cover glass is put with the cell-containing side down on an object glass containing a fixative (e.g. Mounting medium). When viewed under the fluorescent microscope, cell culture specimens infacted with chlamydiae show a characteristic apple-green fluorescence of inclusions against a red counterstained background.

[3] = tested on: C. pneumoniae K7 strain (clinical isolate); assay: Direct anti-chlamydial effect (inhibition of formation of inclusions), HL host cells; assay type: cell-based; settings: for Inhibition % of the DMSO control: formation of inclusions; for Inhibition of the growth of C. pneumoniae (in words): concentration of 0.5-50 μg
Source text: The Direct Anti-Chlamydial Effect of Plant-Derived Phenolic Compounds (As Inhibition of Formation of Inclusions)/C. pneumoniae K7 Strain (Clinical Isolate)
as §2, §3
(§7) As the host cell of C. pneumoniae in in vitro conditions HL cells are used. As the host cells of C. trachomatis in in vitro conditions McCoy cells often are used.
as §4, §5, §6

C. trachomatis = assay: Direct anti-chlamydial effect on C. trachomatis, cultivation in McCoy cells; assay type: cell-based; settings: for inhibition at 0.5 µM / inhibition at 50 µM: Chlamydia trachomatis
Procedure: C. trachomatis, cultivation in McCoy cells. The test procedure otherwise the same as with C. pneumoniae.
as §7, §4, §5, §6

C. pneumoniae [4] = assay: Inhibition of the infectivity (chlamydiasidic effect), re-infection of new cells; assay type: cell-based; settings: for inhibition at 0.5 µM / inhibition at 50 µM: Chlamydia pneumoniae
Procedure: Inhibition of the Infectivity/C. pneumoniae
as §5, §6

[5] = tested on: C. pneumoniae K7 strain (clinical isolate); assay: Direct anti-chlamydial effect (inhibition of formation of inclusions), HL host cells; assay type: cell-based; settings: for Inhibition % of the DMSO control (pre-treated): host cells incubated 1 day with compound before infection
HL cells = assay: Toxicity towards the host cells, Trypan blue staining, no infection; assay type: cell-based, human
Procedure: The determination was performed as in the previous tests but without any infection. The viability was determined with Trypan blue staining.

[6] = Chlamydia pneumoniae, read-out: Inhibition % of the DMSO control
[7] = Chlamydia pneumoniae, read-out: Inhibition % of the DMSO control (pre-treated)

## O=c1cc(-c2ccc(O)c(O)c2)oc2cc(O[C@@H]3O[C@H](CO)[C@@H](O)[C@H](O)[C@H]3O)cc(O)c12 [Luteolin-7-glucoside]
Ca^2+ intake in the cell
  Effect on Ca^2+ intake [%]: −16.3%
[1]
  IC50: 10.7 µM
C. pneumoniae [2]
  Inhibition %: 23%

## O=c1cc(-c2ccc(O)c(O)c2)oc2cc(O)cc(O)c12 [Luteolin]
Ca^2+ intake in the cell
  inhibition at 20 µg/mL: 51.4%
[1]
  IC50: 12 µM
C. pneumoniae [2]
  inhibition at 50 µM: 100%

## COC(=O)c1cc(O)c(O)c(O)c1 [Methyl gallate]
[1]
  IC50: 5.09 µM
C. pneumoniae [2]
  inhibition at 50 µM: 100%

## O=c1c(O)c(-c2ccc(O)cc2O)oc2cc(O)cc(O)c12 [Morin]
Ca^2+ intake in the cell
  Effect on Ca^2+ intake [%]: +48.0%
[3]; 0.5 μM
  Inhibition % of the DMSO control: 80%
[3]; 50 μM
  Inhibition % of the DMSO control: 99%
[3]
  Inhibition of the growth of C. pneumoniae (in words): inhibited the growth
[1]
  IC50: 23.9 µM
C. trachomatis; 0.5 μM, McCoy cells
  Inhibition % of the DMSO control: 0%
C. trachomatis; 0.5 μM, McCoy cells pre-treated 1 day
  Inhibition % of the DMSO control (pre-treated): 100%
C. trachomatis; 50 μM, McCoy cells
  Inhibition % of the DMSO control: 0%
C. trachomatis; 50 μM, McCoy cells pre-treated 1 day
  Inhibition % of the DMSO control (pre-treated): 100%
C. trachomatis; pretreated host cells
  Effect on C. trachomatis (in words): particularly effective
C. pneumoniae [4]; 0.5 μM
  Inhibition % of the DMSO control: 81%
C. pneumoniae [4]; 0.5 μM, host cells pre-treated 1 day
  Inhibition % of the DMSO control (pre-treated): 53%
C. pneumoniae [4]; 50 μM
  Inhibition % of the DMSO control: 94%
C. pneumoniae [4]; 50 μM, host cells pre-treated 1 day
  Inhibition % of the DMSO control (pre-treated): 76%
[5]; 0.5 μM
  Inhibition % of the DMSO control (pre-treated): 62%
[5]; 50 μM
  Inhibition % of the DMSO control (pre-treated): 96%
C. pneumoniae [2]
  Inhibition %: 100%
HL cells; 0.005 μM
  Toxicity test HL-C: 8.3%
  Toxicity test HL-C (pre-treated): 14.4%
HL cells; 0.05 μM
  Toxicity test HL-C: 9.0%
  Toxicity test HL-C (pre-treated): 8.1%
HL cells; 0.5 μM
  Toxicity test HL-C: 8.4%
  Toxicity test HL-C (pre-treated): 6.4%
HL cells; 5 μM
  Toxicity test HL-C: 8.3%
  Toxicity test HL-C (pre-treated): 12.7%
HL cells; 50 μM
  Toxicity test HL-C: 11.2%
  Toxicity test HL-C (pre-treated): 9.7%

## O=C1C[C@@H](c2ccc(O)cc2)Oc2cc(O)cc(O)c21 [Naringenin]
Ca^2+ intake in the cell
  inhibition at 20 µg/mL: 56.3%
[1]
  IC50: > 3670 µM
C. pneumoniae [2]
  inhibition at 50 µM: 16%

## CCCCCCCCOC(=O)c1cc(O)c(O)c(O)c1 [Octyl gallate]
Ca^2+ intake in the cell
  inhibition at 20 µg/mL: 92.2%
[3]; [6]
  inhibition at 0.5 µM: 82%
  inhibition at 50 µM: 100%
[3]
  Inhibition of the growth of C. pneumoniae (in words): inhibited the growth
[1]
  IC50: 17 µM
C. trachomatis; 0.5 μM, McCoy cells pre-treated 1 day, read-out: Inhibition % of the DMSO control (pre-treated)
  inhibition at 0.5 µM: 0%
C. trachomatis; 0.5 μM, McCoy cells, read-out: Inhibition % of the DMSO control
  inhibition at 0.5 µM: 0%
C. trachomatis; 50 μM, McCoy cells pre-treated 1 day, read-out: Inhibition % of the DMSO control (pre-treated)
  inhibition at 50 µM: 88%
C. trachomatis; 50 μM, McCoy cells, read-out: Inhibition % of the DMSO control
  inhibition at 50 µM: 14%
C. pneumoniae [4]; 0.5 μM, host cells pre-treated 1 day, read-out: Inhibition % of the DMSO control (pre-treated)
  inhibition at 0.5 µM: 42%
C. pneumoniae [4]; 0.5 μM, read-out: Inhibition % of the DMSO control
  inhibition at 0.5 µM: 59%
C. pneumoniae [4]; 50 μM, host cells pre-treated 1 day, read-out: Inhibition % of the DMSO control (pre-treated)
  inhibition at 50 µM: 100%
C. pneumoniae [4]; 50 μM, read-out: Inhibition % of the DMSO control
  inhibition at 50 µM: 100%
[5]; [7]
  inhibition at 0.5 µM: 62%
  inhibition at 50 µM: 100%
C. pneumoniae [2]
  inhibition at 50 µM: 100%
HL cells; 0.005 μM
  Toxicity test HL-C: 8.0%
  Toxicity test HL-C (pre-treated): 7.0%
HL cells; 0.05 μM
  Toxicity test HL-C: 7.4%
  Toxicity test HL-C (pre-treated): 7.1%
HL cells; 0.5 μM
  Toxicity test HL-C: 7.9%
  Toxicity test HL-C (pre-treated): 5.0%
HL cells; 5 μM
  Toxicity test HL-C: 8.8%
  Toxicity test HL-C (pre-treated): 8.5%
HL cells; 50 μM
  Toxicity test HL-C: 16.4%
  Toxicity test HL-C (pre-treated): 14.8%

## CCCOC(=O)c1cc(O)c(O)c(O)c1 [Propyl Gallate]
Ca^2+ intake in the cell
  inhibition at 20 µg/mL: 37.9%
[1]
  IC50: 13.3 µM
C. pneumoniae [2]
  inhibition at 50 µM: 100%

## C[C@@H]1O[C@@H](Oc2c(-c3ccc(O)c(O)c3)oc3cc(O)cc(O)c3c2=O)[C@H](O)[C@H](O)[C@H]1O [Quercitrin]
Ca^2+ intake in the cell
  Effect on Ca^2+ intake [%]: +20.1%
[1]
  IC50: 12.9 µM
C. pneumoniae [2]
  Inhibition %: 50%

## C[C@@H]1O[C@@H](OC[C@H]2O[C@@H](Oc3c(-c4ccc(O)c(O)c4)oc4cc(O)cc(O)c4c3=O)[C@H](O)[C@@H](O)[C@@H]2O)[C@H](O)[C@H](O)[C@H]1O [Rutin]
Ca^2+ intake in the cell
  Effect on Ca^2+ intake [%]: −3.88%
[1]
  IC50: 10.2 µM
C. pneumoniae [2]
  Inhibition %: 46%

## COc1cc(C(=O)O)cc(OC)c1O [Syringic acid]
Ca^2+ intake in the cell
  inhibition at 20 µg/mL: 10.9%
[1]
  IC50: 32.6 µM
C. pneumoniae [2]
  inhibition at 50 µM: 32%

## C[C@@H]1O[C@@H](O[C@@H]2[C@@H](O)[C@H](O)[C@@H](CO)O[C@H]2c2c(O)cc(O)c3c(=O)cc(-c4ccc(O)cc4)oc23)[C@H](O)[C@H](O)[C@H]1O [Vitexin-2″-O-rhamnoside]
Ca^2+ intake in the cell
  Effect on Ca^2+ intake [%]: −14.6%
C. pneumoniae [2]
  Inhibition %: 11%

## O=c1cc(-c2ccc(O)cc2)oc2c([C@@H]3O[C@H](CO)[C@@H](O)[C@H](O)[C@H]3O)c(O)cc(O)c12 [Vitexin]
Ca^2+ intake in the cell
  Effect on Ca^2+ intake [%]: −2.12%
C. pneumoniae [2]
  Inhibition %: 3%
